Values joined by “and” are separate entries in the source; they are usually repeats but may differ in a detail not shown here. Equal values may be shown once. Marks after values point to notes of the source that are not given here.
Columns and labels:
(α4)2(β2)3 nAChR = target: T1, (α4)2(β2)3 nAChR (Homo sapiens, UniProt P17787+P43681); test: Two-electrode voltage-clamp of ACh-induced currents in Xenopus oocytes; format: cell-based
T1 construct: expressed in transfected cells; host or cells: Xenopus laevis oocytes injected with cRNA
Experimental: To begin to characterize LY2087101 interaction with the heteropentameric α4β2 nAChRs, we examined the selectivity of LY2087101 for the two α4β2 nAChR isoforms; high-agonist sensitivity (α4)2(β2)3 and low-agonist sensitivity (α4)3(β2)2 nAChRs. Xenopus oocytes were injected with α4 and β2 subunits RNAs at ratios 8:1 and 1:8 to favor expression of (α4)3(β2)2 and (α4)2(β2)3 nAChRs, respectively.
Ovarian lobules were surgically harvested from oocytes-positive female Xenopus laevis (NASCO, Fort Atkinson, WI) according to an animal use protocol approved by the Texas A&M Health Sciences Center Institutional Animals Care and Use Committee. The Texas A&M Health Sciences Center Research Facility is registered as an animal research facility with the United States Department of Agriculture and is fully accredited by the American Association for Accreditation of Laboratory Animal Care (AAALAC). For oocytes defolliculation, ovarian lobes were treated with 3 mg/ml collagenase type 2 (Worthington Biomedical, Lakewood, NJ) in Ca + 2-free buffer (85 mM NaCl, 2.5 mM KCl, 1 mM MgCl2, 5 mM HEPES, pH 7.6). Collagenase treatment was allowed to proceed for 3 hours at room temperature with gentle shaking then oocytes were washed several times with buffer to remove collagenase then with ND96-gentamicine buffer. Healthy Stage V and VI oocytes were visually selected and maintained at 18 °C in modified ND96-gentamicine buffer (96 mM NaCl, 2 mM KCl, 1.8 mM CaCl2, 1 mM MgCl2, 5 mM HEPES, 50 µg/ml gentamicin, pH 7.6). Oocytes were injected with 50–100 ng of the desired nAChR subunits cRNA mix at ratios of 8α:1β or 1α:8β to express nAChRs with subunit stoichiometries of 3α:2β (low agonist sensitivity) or 2α:3β (high agonist sensitivity), respectively.
Oocytes were continuously perfused with recording buffer (100 mM NaCl, 2 mM KCl, 1 mM CaCl2, 0.8 mM MgCl2, 1 mM EGTA, 10 mM Hepes, pH 7.5) except during periods of drug applications.

(α4R65H)3(β2)2 nAChR = (α4R65H)3(β2)2 nAChR (Homo sapiens, UniProt P43681, R65H); parameters: method as in PMID 28446611; details: 10 µM ACh + 1 µM dFBr vs 10 µM ACh alone; data reported previously ref 29; cited from earlier work
(α4G67E)3(β2)2 nAChR = (α4G67E)3(β2)2 nAChR (Homo sapiens, UniProt P43681, G67E); parameters: method as in PMID 28446611; details: 10 µM ACh + 1 µM dFBr vs 10 µM ACh alone; data reported previously ref 29; cited from earlier work
(α4E92I)3(β2)2 nAChR = (α4E92I)3(β2)2 nAChR (Homo sapiens, UniProt P43681, E92I); parameters: method as in PMID 28446611; details: 10 µM ACh + 1 µM dFBr vs 10 µM ACh alone; data reported previously ref 29; cited from earlier work
(α4H94N)3(β2)2 nAChR = (α4H94N)3(β2)2 nAChR (Homo sapiens, UniProt P43681, H94N); parameters: method as in PMID 28446611; details: 10 µM ACh + 1 µM dFBr vs 10 µM ACh alone; data reported previously ref 29; cited from earlier work
(α4H142L)3(β2)2 nAChR = (α4H142L)3(β2)2 nAChR (Homo sapiens, UniProt P43681, H142L); parameters: method as in PMID 28446611; details: 10 µM ACh + 1 µM dFBr vs 10 µM ACh alone; data reported previously ref 29; cited from earlier work
(α4Q150T)3(β2)2 nAChR = (α4Q150T)3(β2)2 nAChR (Homo sapiens, UniProt P43681, Q150T); parameters: method as in PMID 28446611; details: 10 µM ACh + 1 µM dFBr vs 10 µM ACh alone; data reported previously ref 29; cited from earlier work
animal model [1] = system: animal model; parameters: method as in PMID 23712602, PMID 28446611, PMID 28809075, PMID 28105008; details: cited from earlier work
animal model [2] = system: animal model; parameters: method as in PMID 23712602, PMID 28446611, PMID 28809075, PMID 28105008; details: cited from earlier work; remark: listed apart in the source
[3] = system: non-induced compulsive-like mouse model; parameters: method as in PMID 23712602, PMID 28446611, PMID 28809075, PMID 28105008; details: cited from earlier work

T1 sequence (P43681 29-627 limits assumed): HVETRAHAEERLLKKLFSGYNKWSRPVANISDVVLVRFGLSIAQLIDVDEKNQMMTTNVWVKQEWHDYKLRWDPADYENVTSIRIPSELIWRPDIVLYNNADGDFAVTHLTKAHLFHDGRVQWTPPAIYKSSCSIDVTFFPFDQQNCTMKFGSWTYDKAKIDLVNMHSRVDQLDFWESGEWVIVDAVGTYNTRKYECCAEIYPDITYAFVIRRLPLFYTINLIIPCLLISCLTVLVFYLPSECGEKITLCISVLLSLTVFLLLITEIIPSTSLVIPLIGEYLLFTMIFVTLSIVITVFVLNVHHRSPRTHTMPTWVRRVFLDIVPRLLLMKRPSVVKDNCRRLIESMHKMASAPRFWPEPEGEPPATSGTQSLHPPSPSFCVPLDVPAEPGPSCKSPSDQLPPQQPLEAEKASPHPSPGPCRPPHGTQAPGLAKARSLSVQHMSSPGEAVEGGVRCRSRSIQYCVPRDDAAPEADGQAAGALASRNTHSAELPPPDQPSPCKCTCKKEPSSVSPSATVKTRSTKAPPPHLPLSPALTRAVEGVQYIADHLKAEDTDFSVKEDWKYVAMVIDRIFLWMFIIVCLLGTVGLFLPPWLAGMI
T1 sequence (P17787 26-502): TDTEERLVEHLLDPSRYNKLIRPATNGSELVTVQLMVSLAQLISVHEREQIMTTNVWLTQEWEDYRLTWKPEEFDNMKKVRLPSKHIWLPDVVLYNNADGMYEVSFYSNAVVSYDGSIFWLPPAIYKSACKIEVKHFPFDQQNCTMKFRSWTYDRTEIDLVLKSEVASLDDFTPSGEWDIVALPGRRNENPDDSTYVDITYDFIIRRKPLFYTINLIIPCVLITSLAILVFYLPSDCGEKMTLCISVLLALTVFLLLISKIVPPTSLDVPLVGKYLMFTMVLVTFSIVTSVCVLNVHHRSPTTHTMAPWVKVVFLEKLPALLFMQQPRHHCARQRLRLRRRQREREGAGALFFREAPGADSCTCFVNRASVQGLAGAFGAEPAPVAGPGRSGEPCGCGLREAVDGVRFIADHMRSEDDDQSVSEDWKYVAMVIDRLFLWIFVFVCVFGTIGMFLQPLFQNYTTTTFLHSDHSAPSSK
(α4E92I)3(β2)2 nAChR, sequence (P43681 29-627 E92I limits assumed): as the sequence (P43681 29-627 limits assumed) above, with E64I counted along it
(α4E92I)3(β2)2 nAChR, sequence (P17787 26-502 partner): as the sequence (P17787 26-502) above
(α4R65H)3(β2)2 nAChR, sequence (P43681 29-627 R65H limits assumed): as the sequence (P43681 29-627 limits assumed) above, with R37H counted along it
(α4R65H)3(β2)2 nAChR, sequence (P17787 26-502 partner): as the sequence (P17787 26-502) above
(α4Q150T)3(β2)2 nAChR, sequence (P43681 29-627 Q150T limits assumed): as the sequence (P43681 29-627 limits assumed) above, with Q122T counted along it
(α4Q150T)3(β2)2 nAChR, sequence (P17787 26-502 partner): as the sequence (P17787 26-502) above
(α4G67E)3(β2)2 nAChR, sequence (P43681 29-627 G67E limits assumed): as the sequence (P43681 29-627 limits assumed) above, with G39E counted along it
(α4G67E)3(β2)2 nAChR, sequence (P17787 26-502 partner): as the sequence (P17787 26-502) above
(α4H142L)3(β2)2 nAChR, sequence (P43681 29-627 H142L limits assumed): as the sequence (P43681 29-627 limits assumed) above, with H114L counted along it
(α4H142L)3(β2)2 nAChR, sequence (P17787 26-502 partner): as the sequence (P17787 26-502) above
(α4H94N)3(β2)2 nAChR, sequence (P43681 29-627 H94N limits assumed): as the sequence (P43681 29-627 limits assumed) above, with H66N counted along it
(α4H94N)3(β2)2 nAChR, sequence (P17787 26-502 partner): as the sequence (P17787 26-502) above

| SMILES | ACh Imax in the presence of 1 µM LY2087101 ((α4)2(β2)3 nAChR; ACh concentration-response curve, normalized to 1 mM ACh alone) | EC50 ((α4)2(β2)3 nAChR; co-applied with 10 µM ACh, HS WT, read-out: LY2087101 potentiation EC50) | R, potentiation ratio (PR) ((α4R65H)3(β2)2 nAChR) | R, potentiation ratio (PR) ((α4G67E)3(β2)2 nAChR) | R, potentiation ratio (PR) ((α4E92I)3(β2)2 nAChR) | R, potentiation ratio (PR) ((α4H94N)3(β2)2 nAChR) | R, potentiation ratio (PR) ((α4H142L)3(β2)2 nAChR) | R, potentiation ratio (PR) ((α4Q150T)3(β2)2 nAChR) | nicotine self-administration (animal model [1]) | nicotine withdrawal signs (animal model [2]) | compulsive-like behavior [3] |
| --- | --- | --- | --- | --- | --- | --- | --- | --- | --- | --- | --- |
| Cc1nc(Nc2ccc(F)cc2)sc1C(=O)c1ccsc1 [LY2087101, [2-[(4-Fluorophenyl)amino]-4-methyl-5-thiazolyl]-3-thienylmethanone] | 189 ± 2% and ~190% | 1900 ± 40 nM | – | – | – | – | – | – | – | – | – |
| C=CC(C)(C)c1[nH]c2cc(Br)ccc2c1CCNC [dFBr] | – | – | 5.3 ± 1.8^a | 4.1 ± 0.2^a | 9.3 ± 1.8^a | 5.8 ± 0.5^a | 8.1 ± 0.6^a | 3.9 ± 0.1^a | reduce nicotine self-administration | reverse nicotine withdrawal signs | attenuate compulsive-like behavior |
